The values that follow come from patent US20110280941A1, “COMPOSITIONS OF PROTON PUMP INHIBITORS AND INSULIN SECRETAGOGUES, AND METHODS OF THEIR USE TO TREAT DIABETES” (Mefford Scientific, LLC, priority 2008, published 2011).

Holding throughout (format): in vivo, human
Experiment [1] has as its system Type II diabetic patients. Kind of experiment: Hemoglobin A1c during 24 week omeprazole trial (Example 4). On the procedure: (§1) Seven Type II diabetic patients were administered omeprazole for 24 weeks and data was obtained from fasting and following a 2 hour glucose tolerance test at 8 week intervals and compared to baseline values. Statistical comparisons and analysis were performed with a commercial program, Analyse-it, version 2.20.
(§2) Subjects: Five males, 2 females, age range 42-68 years, mean age 54+10 years. BMI's ranged from 31 to 49, mean 38+6. All subjects had co-morbid hypertension, four had co-morbid dyslipidemia and two had co-morbid hypothyroidism. All were stable on oral diabetes medications with 7/7 on metformin, 6/7 on pioglitazone (Actos), 4/7 on a DPP-4 inhibitor, sitagliptan (Januvia) and 4/7 on a Sulfonylurea. All subjects received a physical exam, review of systems and a baseline EKG prior to initiating the PPI trial. Subjects were then seen and evaluated at monthly intervals interviewed for adverse events and monitored for medication compliance and maintenance of daily blood glucose logs.
Design: All subjects continued on their respective oral antidiabetic medications throughout the study. Baseline data was obtained in a fasting state after an overnight fast. Subjects were then administered 75 g of glucose and blood samples obtained at 1 and 2 hours. […]

For experiment [2], the system named is Type II diabetic patients. Kind of experiment: % Beta Cell area calculated from the 2 hour glucose tolerance value (method of Meier et al) (Example 4). The settings on record: seven Type II diabetics; PPI administration. On the procedure: (§3) Design: All subjects continued on their respective oral antidiabetic medications throughout the study. Baseline data was obtained in a fasting state after an overnight fast. Subjects were then administered 75 g of glucose and blood samples obtained at 1 and 2 hours. Following collection of baseline data, subjects were administered Omeprazole Delayed-Release Capsules USP, (Apotex Inc., Toronto, Canada M9L 179), 40 mg orally twice daily and blood samples again obtained after 8, and 16 weeks. Medications were not taken on the mornings of testing. Following the 16 week sample collection, subjects were increased to 80 mg Omeprazole twice daily and blood samples again obtained at 24 weeks.
Table 2 summarizes the effects of PPI administration on plasma Gastrin, Hemoglobin A1c and % Beta Cell area (calculated using the 2 hour glucose tolerance value by the method of Meier et al, Diabetes, vol 58, 1595-1603, 2009). […] Hemoglobin A1c, a measure of average blood glucose, was reduced by approximately 0.9% in this cohort, consistent with improved diabetes control (FIG. 6). Finally, the calculated Beta cell mass increased across the treatment period by approximately 25%.

Experiment [3] has as its system Type II diabetic patients. Kind of experiment: 2 hour glucose tolerance test during 24 week omeprazole trial (Example 4). Here is the method: as §1, §2, §3
Measurements: Helicobacter Pylori IgG was obtained on each subject as a baseline as were Hemoglobin A1c and fasting Gastrin. Each 2 hour glucose tolerance test provided fasting glucose, insulin and c-peptide as well as 1 hour and 2 hour glucose and stimulated insulin and c-peptide. All measurements were obtained through a commercial laboratory using standardized analytical methods, Quest Diagnostics Laboratory, 5850 Rogerdale Road, Houston, Tex. 77072.

Experiment [4] concerns Type II diabetic patients. Kind of experiment: Plasma gastrin during 24 week omeprazole trial (Example 4). The settings on record: serum levels gradually reduced over time (FIG. 7).
Method: Statistical comparisons and analysis were performed with a commercial program, Analyse-it, version 2.20. Design: All subjects continued on their respective oral antidiabetic medications throughout the study. Baseline data was obtained in a fasting state after an overnight fast. Subjects were then administered 75 g of glucose and blood samples obtained at 1 and 2 hours. Following collection of baseline data, subjects were administered Omeprazole Delayed-Release Capsules USP, (Apotex Inc., Toronto, Canada [MUT] 179), 40 mg orally twice daily and blood samples again obtained after 8, and 16 weeks. Medications were not taken on the mornings of testing. Following the 16 week sample collection, subjects were increased to 80 mg Omeprazole twice daily and blood samples again obtained at 24 weeks. Measurements: Helicobacter Pylori IgG was obtained on each subject as a baseline as were Hemoglobin A1c and fasting Gastrin. Each 2 hour glucose tolerance test provided fasting glucose, insulin and c-peptide as well as 1 hour and 2 hour glucose and stimulated insulin and c-peptide. All measurements were obtained through a commercial laboratory using standardized analytical methods, Quest Diagnostics Laboratory, 5850 Rogerdale Road, Houston, Tex.
Where [5] appears, read: after PPI administration (FIG. 4).

In the case of `COc1ccc2[nH]c([S+]([O-])Cc3ncc(C)c(OC)c3C)nc2c1` (stereo not drawn) [Omeprazole, 5-methoxy-2-[(4-methoxy-3,5-dimethyl-2-pyridinyl)methyl]sulfinyl-1H-benzimidazole], the “percent hemoglobin A1c, change for all patients” value in experiment [1] (FIG. 1, statistically significant) is “decrease”. For the same compound, the “Hemoglobin A1c reduction in this cohort” value in experiment [1] (seven Type II diabetics, PPI administration up to 24 weeks (FIG. 6)) is recorded as “approximately 0.9%”. The “calculated Beta cell mass increase across the treatment period” value in experiment [2] is on record as “approximately 25%”. The “maximum glucose excursion at both 1 and 2 hours, change” value in experiment [3] (8 and 16 weeks, statistically significant reductions at 16 weeks (FIG. 3)) is recorded as “reduced”. Moreover, in experiment [3] (setting [5]), the “Stimulated insulin secretion at both 1 and 2 hours, change” value is “increased”; the “fasting insulin levels, change” value is recorded as “unchanged”. Besides, the “1 and 2 hour c-peptide secretion, change” value in experiment [3] (after PPI administration (FIG. 5)) is “increased”. Also, in experiment [3] (at both 8 and 16 weeks (FIG. 3)), the “Fasting blood glucose, change” value is on record as “reduced”. For the same compound, the “plasma gastrin, change by long term PPI administration” value in experiment [4] is on record as “markedly elevated”.
